Data taken from patent publication US10399948B2, “Negative allosteric modulators of metabotropic glutamate receptor 3” (Vanderbilt University, priority 2015, dated 2019).

Key:
[1] = molecular target: rat mGlu3 (Rattus norvegicus (Rat), UniProt P31422); test: mGlu3 Ca2+ flux assay; assay type: cell-based; settings: for IC50: NAM, glutamate EC80, >10,000 = decrease without plateau, >30,000 = no measurable activity; for remaining activity at 30 µM: response at 30 μM test compound as percentage of maximal response to glutamate, read-out: rat mGlu3 Glu max (%)
Description: Gα15/TREx cells stably expressing rat mGlu3 were plated in black-walled, clear-bottomed, poly-D-lysine coated 384-well plates in 20 μL of assay medium (DMEM containing 10% dialyzed FBS, 20 mM HEPES, 25 ng/mL tetracycline, 100 units/mL penicillin/streptomycin plus 250 ng/mL Fungizone, and 1 mM sodium pyruvate) at a density of 15K cells/well. The cells were grown overnight at 37° C. in the presence of 5% CO2. […] Dye was removed, 20 μL of assay buffer was added, and the plate was incubated for 10 minutes at room temperature.
(§1) Ca^2+ flux was measured using the Functional Drug Screening System (FDSS7000, Hamamatsu, Japan). After establishment of a fluorescence baseline for about 3 seconds, the compounds of the present invention were added to the cells, and the response in cells was measured. 2.3 minutes later an EC20 concentration of the mGlu3 receptor agonist glutamate was added to the cells, and the response of the cells was measured for 1.9 minutes; an EC80 concentration of agonist was added and readings taken for an additional 1.7 minutes. All test compounds were dissolved and diluted to a concentration of 10 mM in 100% DMSO. Compounds were then serially diluted 1:3 in DMSO into 10 point concentration response curves, transferred to daughter plates, and further diluted into assay buffer to a 2× stock. Calcium fluorescence measures were recorded as fold over basal fluorescence; raw data was then normalized to the maximal response to glutamate.
(§2) The raw data file containing all time points was used as the data source in the analysis template. This was saved by the FDSS as a tab-delimited text file. Data were normalized using a static ratio function (F/F0) for each measurement of the total 360 values per well divided by each well's initial value. Data were then reduced to peak amplitudes (Max−Initial Min) using a time range that starts approximately 3 seconds prior to the glutamate EC80 addition and continues for approximately 90 seconds. This is sufficient time to capture the peak amplitude of the cellular calcium response. Individual amplitudes were expressed as % EMax by multiplying each amplitude by 100 and then dividing the product by the mean of the amplitudes derived from the glutamate ECMax-treated wells. EC50 values for test compounds were generated by fitting the normalized values versus the log of the test compound concentration (in mol/L) using a 4 parameter logistic equation where none of the parameters were fixed. Each of the three values collected at each concentration of test compound were weighted evenly.

[2] = molecular target: rat mGlu2 (Rattus norvegicus (Rat), UniProt P31421); test: mGlu2 Ca2+ flux assay; assay type: cell-based; settings: NAM, glutamate EC80; >30,000 = no measurable activity
Description: Gα15 HEK293 cells stably expressing rat mGlu2 were plated in black-walled, clear-bottomed, poly-D-lysine coated 384-well plates in 20 μL of assay medium (DMEM containing 10% dialyzed FBS, 20 mM HEPES, and 1 mM sodium pyruvate) at a density of 12K cells/well. The cells were grown overnight at 37° C. in the presence of 5% CO2. The next day, medium was removed and the cells incubated with 20 μL of […] Fluo-4, AM prepared as a 2.3 mM stock in DMSO and mixed in a 1:1 ratio with 10% (w/v) pluronic acid F-127 and diluted in assay buffer (Hank's balanced salt solution, 20 mM HEPES, and 2.5 mM probenecid) for 45 minutes at 37° C. Dye was removed, 20 μL of assay buffer was added, and the plate was incubated for 5 minutes at room temperature.
as §1, with “mGlu2” for “mGlu3”
as §2, with “ECMax” for “EMax”, “IC50” for “EC50”

Chain of rat mGlu3 (P31422 23-879): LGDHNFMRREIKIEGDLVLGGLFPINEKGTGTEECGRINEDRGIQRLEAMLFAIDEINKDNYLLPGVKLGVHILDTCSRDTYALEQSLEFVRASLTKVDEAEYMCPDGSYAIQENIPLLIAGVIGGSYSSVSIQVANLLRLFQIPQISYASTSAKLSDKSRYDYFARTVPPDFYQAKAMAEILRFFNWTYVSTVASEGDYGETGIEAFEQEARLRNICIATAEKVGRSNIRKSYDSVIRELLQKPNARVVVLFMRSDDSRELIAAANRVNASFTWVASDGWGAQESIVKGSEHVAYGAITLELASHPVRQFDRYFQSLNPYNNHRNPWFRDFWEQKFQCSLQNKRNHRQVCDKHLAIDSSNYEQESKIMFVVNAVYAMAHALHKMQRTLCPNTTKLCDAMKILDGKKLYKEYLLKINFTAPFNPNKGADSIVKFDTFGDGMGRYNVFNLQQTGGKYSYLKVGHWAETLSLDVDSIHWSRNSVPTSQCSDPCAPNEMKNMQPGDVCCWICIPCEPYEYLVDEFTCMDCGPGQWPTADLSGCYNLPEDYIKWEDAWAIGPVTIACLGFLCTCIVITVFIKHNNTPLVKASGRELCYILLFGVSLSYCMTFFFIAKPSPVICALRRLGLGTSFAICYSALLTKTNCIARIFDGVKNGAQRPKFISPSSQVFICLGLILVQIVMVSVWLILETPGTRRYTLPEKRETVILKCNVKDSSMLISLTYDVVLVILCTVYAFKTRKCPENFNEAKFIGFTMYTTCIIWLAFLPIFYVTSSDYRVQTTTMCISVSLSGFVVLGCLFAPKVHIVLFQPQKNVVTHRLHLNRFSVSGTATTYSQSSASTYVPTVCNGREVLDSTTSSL
Chain of rat mGlu2 (P31421 19-872): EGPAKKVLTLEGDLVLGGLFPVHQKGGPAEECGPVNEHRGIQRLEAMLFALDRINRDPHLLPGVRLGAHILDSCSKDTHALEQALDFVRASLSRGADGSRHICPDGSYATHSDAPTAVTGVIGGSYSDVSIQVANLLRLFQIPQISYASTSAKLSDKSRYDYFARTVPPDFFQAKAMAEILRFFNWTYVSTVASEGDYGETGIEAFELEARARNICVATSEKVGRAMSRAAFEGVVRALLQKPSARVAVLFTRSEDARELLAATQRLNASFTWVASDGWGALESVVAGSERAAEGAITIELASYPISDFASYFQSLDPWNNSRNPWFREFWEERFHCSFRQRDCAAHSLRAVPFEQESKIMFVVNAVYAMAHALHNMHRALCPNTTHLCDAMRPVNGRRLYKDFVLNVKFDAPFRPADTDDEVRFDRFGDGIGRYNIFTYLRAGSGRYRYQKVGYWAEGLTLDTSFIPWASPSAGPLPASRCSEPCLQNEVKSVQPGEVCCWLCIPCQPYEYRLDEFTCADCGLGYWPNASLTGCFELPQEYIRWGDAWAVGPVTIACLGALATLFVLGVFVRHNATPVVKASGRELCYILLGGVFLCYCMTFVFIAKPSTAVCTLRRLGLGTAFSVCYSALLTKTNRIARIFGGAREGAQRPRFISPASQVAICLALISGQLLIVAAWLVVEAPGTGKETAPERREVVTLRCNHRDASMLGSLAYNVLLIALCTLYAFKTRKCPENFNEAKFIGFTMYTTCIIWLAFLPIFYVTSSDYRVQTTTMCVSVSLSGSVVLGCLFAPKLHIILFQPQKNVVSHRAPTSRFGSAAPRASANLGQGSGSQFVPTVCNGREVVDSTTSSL

SMILES: O=c1cc(OCCOc2ccc(F)cn2)ccn1-c1ccc(F)cc1 [Compound 52, 1-(4-fluorophenyl)-4-(2-((5-fluoropyridin-2-yl)oxy)ethoxy)pyridin-2(1H)-one]
- IC50 [1]: 1.06 µM
- remaining activity at 30 µM [1]: 0.26%
- IC50 [2]: > 30 µM

SMILES: O=c1cc(OCCOc2ccccc2)cnn1-c1ccc(F)cc1 [Compound 29, 2-(4-Fluorophenyl)-5-(2-phenoxyethoxy)pyridazin-3(2H)-one]
- IC50 [1]: 3.87 µM
- remaining activity at 30 µM [1]: 5.86%
- IC50 [2]: > 30 µM

SMILES: O=c1cc(OCCS(=O)(=O)c2ccccc2)ccn1-c1ccc(F)cc1 [Compound 9, 1-(4-fluorophenyl)-4-(2-(phenylsulfonyl)ethoxy)pyridin-2(1H)-one]
- IC50 [1]: > 30 µM

SMILES: O=c1cc(OCCOC2CCCCC2)ccn1-c1ccc(F)cc1 [Compound 7, 4-(2-(cyclohexyloxy)ethoxy)-1-(4-fluorophenyl)pyridin-2(1H)-one]
- IC50 [1]: > 10 µM
- remaining activity at 30 µM [1]: 15.5%

SMILES: N#Cc1cccc(OCCOc2ccn(-c3ccc(F)cc3)c(=O)c2)n1 [Compound 59, 6-(2-((1-(4-fluorophenyl)-2-oxo-1,2-dihydropyridin-4-yl)oxy)ethoxy)picolinonitrile]
- IC50 [1]: > 10 µM
- remaining activity at 30 µM [1]: 35.9%
- IC50 [2]: > 30 µM

SMILES: O=c1cc(OCCOc2ncccc2F)ccn1-c1ccc(F)cc1 [Compound 51, 1-(4-fluorophenyl)-4-(2-((3-fluoropyridin-2-yl)oxy)ethoxy)pyridin-2(1H)-one]
- IC50 [1]: 1.28 µM
- remaining activity at 30 µM [1]: 0.2%
- IC50 [2]: > 30 µM

SMILES: O=c1cc(OCCOc2cccc(Cl)c2)ccn1-c1ccc(F)cc1 [Compound 38, 4-(2-(3-chlorophenoxy)ethoxy)-1-(4-fluorophenyl)pyridin-2(1H)-one]
- IC50 [1]: 0.98 µM
- remaining activity at 30 µM [1]: 0.85%
- IC50 [2]: > 30 µM

SMILES: COCc1ccc(OCCOc2ccn(-c3ccc(F)cc3)c(=O)c2)cc1 [Compound 43, 1-(4-fluorophenyl)-4-(2-(4-(methoxymethyl)phenoxy)ethoxy)pyridin-2(1H)-one]
- IC50 [1]: > 10 µM
- remaining activity at 30 µM [1]: 37.3%
- IC50 [2]: > 30 µM

SMILES: O=c1cc(OCCOc2ccccc2Cl)ccn1-c1ccc(F)cc1 [Compound 37, 4-(2-(2-chlorophenoxy)ethoxy)-1-(4-fluorophenyl)pyridin-2(1H)-one]
- IC50 [1]: 1.84 µM
- remaining activity at 30 µM [1]: 2.05%
- IC50 [2]: > 30 µM

SMILES: O=c1nc(OCCOc2ccccc2)ccn1-c1ccc(F)cn1 [Compound 16, 1-(5-fluoropyridin-2-yl)-4-(2-phenoxyethoxy)pyrimidin-2(1H)-one]
- IC50 [1]: > 10 µM
- remaining activity at 30 µM [1]: 23.9%
- IC50 [2]: > 30 µM

SMILES: N#Cc1ccc(OCCOc2ccn(-c3ccc(F)cc3)c(=O)c2)cc1 [Compound 42, 4-(2-((1-(4-fluorophenyl)-2-oxo-1,2-dihydropyridin-4-yl)oxy)ethoxy)benzonitrile]
- IC50 [1]: 1.13 µM
- remaining activity at 30 µM [1]: 0.74%
- IC50 [2]: > 30 µM

SMILES: O=c1cc(OCCOc2ccccc2)ccn1-c1cccc(F)n1 [Compound 12, 6′-fluoro-4-(2-phenoxyethoxy)-2H-[1,2′-bipyridin]-2-one]
- IC50 [1]: > 10 µM
- remaining activity at 30 µM [1]: 33.2%
- IC50 [2]: > 30 µM

SMILES: O=c1cc(OCCOc2c(F)cccc2F)ccn1-c1ccc(F)cc1 [Compound 36, 4-(2-(2,6-difluorophenoxy)ethoxy)-1-(4-fluorophenyl)pyridin-2(1H)-one]
- IC50 [1]: 3.18 µM
- remaining activity at 30 µM [1]: -1.16%
- IC50 [2]: > 30 µM

SMILES: O=c1cc(OCCOc2cnccc2Cl)ccn1-c1ccc(F)cc1 [Compound 47, 4-(2-((4-chloropyridin-3-yl)oxy)ethoxy)-1-(4-fluorophenyl)pyridin-2(1H)-one]
- IC50 [1]: > 10 µM
- remaining activity at 30 µM [1]: 36.7%
- IC50 [2]: > 30 µM

SMILES: O=c1cc(OCCCc2ccccc2)ccn1-c1ccc(F)cc1 [Compound 2, 1-(4-fluorophenyl)-4-(3-phenylpropoxy)pyridin-2(1H)-one]
- IC50 [1]: 5.41 µM
- remaining activity at 30 µM [1]: 1.95%
- IC50 [2]: > 30 µM

SMILES: N#Cc1ccc(OCCOc2ccn(-c3ccc(F)cc3)c(=O)c2)nc1 [Compound 58, 6-(2-((1-(4-fluorophenyl)-2-oxo-1,2-dihydropyridin-4-yl)oxy)ethoxy)nicotinonitrile]
- IC50 [1]: 1.38 µM
- remaining activity at 30 µM [1]: 1.06%
- IC50 [2]: > 30 µM

SMILES: N#Cc1cncc(-n2ccc(OCCOc3ccccc3)cc2=O)c1 [Compound 26, 2-oxo-4-(2-phenoxyethoxy)-2H-[1,3′-bipyridine]-5′-carbonitrile]
- IC50 [1]: 3.41 µM
- remaining activity at 30 µM [1]: -5.24%
- IC50 [2]: > 30 µM

SMILES: O=c1cc(OCCOc2cccc(Cl)n2)ccn1-c1ccc(F)cc1 [Compound 53, 4-(2-((6-chloropyridin-2-yl)oxy)ethoxy)-1-(4-fluorophenyl)pyridin-2(1H)-one]
- IC50 [1]: 4.27 µM
- remaining activity at 30 µM [1]: -1.66%
- IC50 [2]: > 30 µM

SMILES: O=c1cc(OCCOc2ccc(F)cc2F)ccn1-c1ccc(F)cc1 [Compound 34, 4-(2-(2,4-difluorophenoxy)ethoxy)-1-(4-fluorophenyl)pyridin-2(1H)-one]
- IC50 [1]: 1.45 µM
- remaining activity at 30 µM [1]: 1.32%
- IC50 [2]: > 30 µM

SMILES: O=c1cc(OCCOc2cc(F)ccc2F)ccn1-c1ccc(F)cc1 [Compound 35, 4-(2-(2,5-difluorophenoxy)ethoxy)-1-(4-fluorophenyl)pyridin-2(1H)-one]
- IC50 [1]: 1.46 µM
- remaining activity at 30 µM [1]: 2.27%
- IC50 [2]: > 30 µM

SMILES: CN(CCOc1ccn(-c2ccc(F)cc2)c(=O)c1)c1ccccc1 [Compound 4, 1-(4-fluorophenyl)-4-(2-(methyl(phenyl)amino)ethoxy)pyridin-2(1H)-one]
- IC50 [1]: 4 µM
- remaining activity at 30 µM [1]: 0%
- IC50 [2]: > 30 µM

SMILES: O=c1cc(OCCOc2ccccc2)ccn1-c1ccc(F)nc1 [Compound 25, 6′-fluoro-4-(2-phenoxyethoxy)-2H-[1,3′-bipyridin]-2-one]
- IC50 [1]: 6.75 µM
- remaining activity at 30 µM [1]: -2.95%
- IC50 [2]: > 30 µM

SMILES: O=c1cc(OCCOc2ccccc2)ccn1-c1ccncc1 [Compound 13, 4-(2-phenoxyethoxy)-2H-[1,4′-bipyridin]-2-one]
- IC50 [1]: > 30 µM
- IC50 [2]: > 30 µM

SMILES: O=c1cc(OCC[S+]([O-])c2ccccc2)ccn1-c1ccc(F)cc1 (stereo not drawn) [Compound 8, 1-(4-fluorophenyl)-4-(2-(phenylsulfinyl)ethoxy)pyridin-2(1H)-one]
- IC50 [1]: > 30 µM

SMILES: O=c1cc(OCCOC2CCCC2)ccn1-c1ccc(F)cc1 [Compound 6, 4-(2-(cyclopentyloxy)ethoxy)-1-(4-fluorophenyl)pyridin-2(1H)-one]
- IC50 [1]: > 30 µM

SMILES: O=c1cc(OCCOCc2ccccc2)ccn1-c1ccc(F)cc1 [W, 4-(2-(Benzyloxy)ethoxy)-1-(4-fluorophenyl)pyridin-2(1H)-one]
- IC50 [1]: 13 µM
- remaining activity at 30 µM [1]: 14.5%
